According to patent publication US9102697B2, “Trioxacarcins and uses thereof” (President and Fellows of Harvard College, priority 2010, dated 2015):
“Also recorded” adds a separate entry of the source.

What was measured:
HeLa S3 cells = assay: Cell proliferation assay (MTS/PMS), HeLa S3 cells; format: cell-based; conditions: HeLa cell line; 72 h at 37 °C
Method: (§1) Cell Culture. H460 cells and HeLa S3 cells were purchased from American Type Culture Collection (ATCC). H460 cells were maintained in RPMI-1640 medium supplemented with 10% fetal bovine serum (FBS). HeLa S3 cells were maintained in Dulbecco's Modified Eagle's Medium supplemented with 10% fetal bovine serum (FBS).
(§2) Cell Proliferation Assay. A solution of H460 or HeLa S3 cells (3000 cells/well) in growth medium was seeded onto a 96-well plate. The 96-well plate was incubated for 24 h at 37° C. Stock solutions of each compound were serially diluted and administrated to cells to achieve final concentrations of 38 nM to 83 μM (DC-45-A2 and iso-DC-45-A2) or 3.4 nM to 7.5 μM (dideoxy-DC-45-A2). After incubating at 37° C. for 72 h, 20 μL of MTS/PMS solution (Promega CellTiter 96® Aqueous Non-Radioactive Cell Proliferation Assay) was added to each well. After incubating at 37° C. for 3.5 h, the absorbance at 490 nm was recorded using a microplate reader (SpectraMax PLUS384) as a measure of viable cells. Percent growth inhibition was calculated for each well based upon the following formula: percent growth inhibition=100×(C−T)/C, where T is the absorbance of the well containing the test compound minus the average absorbance of wells containing media alone, and C is the average absorbance of wells containing vehicle control-treated cells minus the average absorbance of wells containing media alone. […]

H460 cells = assay: Cell proliferation assay (MTS/PMS), H460 cells; format: cell-based; conditions: H460 cell line (printed H4609 in b565); 72 h at 37 °C
Method: as §1, §2

[1] = test system: self-complementary duplex 12-mer d(AATTACGTAATT) (SEQ ID NO: 1); assay: DNA alkylation detected by non-denaturing DNA-gel electrophoresis with in-gel fluorescence; format: biochemical; conditions: for alkylation / modification of the DNA duplex: 12-mer duplex with single central G residue, gel in-gel fluorescence and LC-MS; for fluorescent complex with the oligonucleotide detected: two-hour reaction at 23 °C
Text: Two independent techniques were used to evaluate the reactivity of the synthesized trioxacarcins towards d(AATTACGTAATT) (SEQ ID NO: 1). The first technique involved detecting alkylated DNA oligonucleotides by in-gel fluorescence with non-denaturing DNA-gel electrophoresis. The second technique involved detecting alkylated DNA oligonucleotides using a liquid chromatography-mass spectrometry method.
We began the DNA-alkylation studies by evaluating the activity of DC-45-A2 towards the self-complementary 12-mer d(AATTACGTAATT) (SEQ ID NO: 1) in pH 7 phosphate buffer at different concentrations (FIG. 10). The concentration of the oligonucleotide was held constant at 100 μM while DC-45-A2 was used at five different concentrations ranging from 1 μM to 1000 μM (lanes 4-8) in five separate reactions. At the highest concentrations of DC-45-A2 (500 μM and 1000 μM), a second and distinct fluorescent complex was observed by in-gel fluorescence. […] Chem. 390, 1139 (2008). After incubation for 3 h at 23° C., aliquots of the reactions mixtures were loaded onto a 20% crosslinked polyacrylamide gel. After electrolution, the gels were visualized using an alpha imager, first by irradiating the gel at 302 nm to image fluorescent species in the gel (in-gel fluorescence) and then by treating the gel with ethidium bromide and again irradiating at 302 nm to image fluorescent species in the treated gel. The fluorescence quantum efficiency of an ethidium bromide molecule increases 20- to 25-fold upon intercalation into duplex DNA: J.-B. Le Pecq, C. Paoletti, Anal. Biochem. 17, 100 (1966).
Next, we compared the reactivity of DC-45-A2 to both iso-DC-45-A2 and dideoxy-DC-45-A2 towards the same oligonucleotide in three separate alkylation experiments (FIG. 11).
Having noted the apparent differential reactivity between DC-45-A2 and dideoxy-DC-45-A2, we performed an experiment to visualize the formation of the fluorescent complex at different reaction times (FIG. 12). The reaction of the oligonucleotide with DC-45-A2 reached an approximate maximum of fluorescence intensity between 5 and 10 h, while the reaction of the oligonucleotide with dideoxy-DC-45-A2 reached a maximum fluorescence intensity between 1 and 4 h.
Seven vials (designated vials 1 and vials 3-8) were loaded with alkylation buffer (86.7 μL, see above for preparation). A solution of duplex oligonucleotide d(AATTACGTAATT) (SEQ ID NO: 1) (1.07 mM [concentration of the DNA duplex] in alkylation buffer [see above for preparation], 9.34 μL, 10 nmol, 1 equiv) was added to vials 3-8. Dimethylsulfoxide was added in the following amounts to vials 3-7 (vial 3, 4.00 μL; vial 4, 3.80 μL; vial 5, 3.00 μL; vials 6-7, 2.00 μL). Solutions of DC-45-A2 in dimethylsulfoxide was added to vial 1 and vials 4-8 at the following concentrations and amounts (vial 1, 25 mM solution of DC-45-A2, 4.00 μL; vial 4, 5 mM solution of DC-45-A2, 0.20 μL; vial 5, 5 mM solution of DC-45-A2, 1.00 μL; vial 6, 5 mM solution of D-45-A2, 2.00 μL; vial 7, 25 mM solution of DC-45-A2, 2.00 μL; vial 8, 25 mM solution of DC-45-A2, 4.00 μL). The samples were vortexed, then rotated end-over-end at 23° C. After 2 h, four vials (designated vials 9-12) were prepared containing the following (vial 9, an aliquot of the solution from vial 3 [18.0 μL], DNase I enzyme solution [2.00 μL, Invitrogen 18047-019]; vial 10, an aliquot of the solution from vial 3 [20.0 μL]; vial 11, an aliquot of the solution from vial 5 [18.0 μL], DNase I enzyme [2.00 μL, Invitrogen 18047-019]; vial 12, an aliquot of the solution from vial 5 [20.0 μL]. Vials 9 and 11 were rotated end-over-end at 23° C. for 1 h. Vials 10 and 12 were heated at 95° C. for 15 min. To a final vial (designated vial 2) was added a 10-bp DNA ladder (4 μL, Invitrogen 10821-015) and alkylation buffer (16.0 μL). Vials 2 and 9-12 were diluted with loading buffer (5.00 μL, see above for preparation). A 20-μL aliquot was removed from vials 1 and 3-8. […]

Water solubility = conditions: attenuated by saturation with sodium chloride
[2] = Storage and solution stability

Compound | IC50, growth inhibition (HeLa S3 cells) | IC50, growth inhibition (H460 cells) | alkylation / modification of the DNA duplex ([1]; 23 °C) | alkylation / modification of the DNA duplex ([1]; 23 °C, listed as Iso-DC-45-A2) | alkylation / modification of the DNA duplex ([1]; 23 °C, listed as 1) | rate of alkylation of the DNA duplex ([1]; 23 °C) | fluorescent complex with the oligonucleotide detected ([1]; compound and DNA 100 μM) | stability of the fluorescent DNA complex to heating ([1]; reaction mixture heated at 95 °C for 15 min) | water solubility (Water solubility) | stability in solution ([2]; in solution at 23 °C) | stability on storage ([2]; stored neat at −25 °C with exclusion of light) | efficiency of alkylation of the DNA duplex ([1]; 23 °C, compared with DC-45-A2) | signal intensity of the fluorescent complex ([1]; compound and DNA 100 μM, 2 h at 23 °C, compared with DC-45-A2)
COc1c2c(c(O)c3c4c(c(C)cc13)[C@H]1O[C@]3(C(OC)OC)O[C@H]1[C@](O)(O4)[C@@]31CO1)C(=O)[C@@H](O)C[C@@H]2O [iso-DC-45-A2, 11,12,13,15-tetraepi-DC-45-A2] | inactive | inactive | unreactive | not observed to modify |  |  |  |  |  |  |  |  | 
DC-45-A2 | micromolar; also recorded: submicromolar | micromolar; also recorded: submicromolar | found to modify |  | readily alkylated | half life of hours | clearly detected | destroyed | appreciable water solubility | slow decomposition over hours | stable |  | 
Dideoxy-DC-45-A2 |  |  | found to modify |  |  | within minutes | clearly detected |  |  |  |  | apparently greater efficiency | more intense signal
